Laboratory results taken from patent publication US10100043B2, “Substituted aldehyde compounds and methods for their use in increasing tissue oxygenation” (Global Blood Therapeutics, Inc., priority 2013, dated 2018).

Tests used:
[1] = target: T1, purified Hemoglobin S (HbS) (Homo sapiens, UniProt P68871+P69905, E7V); assay: Modulation of hemoglobin oxygen affinity: oxygen equilibrium curves (OEC) in purified HbS, HEMOX analyzer; format: biochemical; settings: compounds tested at 30 μM; 25 μM purified HbS, 45 min at 37° C., pH 7.4
T1 construct: HbS was purified by a modified procedure; from tissue; host or cells: blood of homozygous sickle cell patients (CHORI)
Experimental: Oxygen equilibrium curves (OEC) in purified Hemoglobin S (HbS) were measured by the change in p50, the partial pressure of oxygen at which the heme binding sites in the HbS sample are 50% saturated with oxygen. HbS was purified by a modified procedure (Antonini and Brunori, 1971; Hemoglobin and Myoglobin in their Reactions with Ligands; North Holland Publishing Company; Amsterdam, London) from blood obtained from homozygous sickle cell patients though the Hemoglobinopathy Center at Children's Hospital Oakland Research Institute (CHORI) with Institutional Review Board approval. Oxygen equilibrium curves were carried out with a HEMOX analyzer, (TCS Scientific, New Hope, Pa.). Five hundred μL of 250 μM purified HbS were diluted into 4.5 mL of HEMOX buffer (30 mM TES, 130 mM NaCl, 5 mM KCl, pH=7.4) resulting in a final hemoglobin concentration of 25 μM. The compounds were added at the final desired concentrations. The mixture was incubated for 45 min at 37° C. and then transferred to the Hemox sample chamber. The samples were saturated with oxygen by flushing with compressed air for 10 minutes. The samples were then flushed with pure nitrogen and the absorbance of deoxy-Hb was recorded as a function of the solution pO2. The oxygen equilibrium data was then fit to the Hill Model to obtain values for p50. The deoxygenation curves for both HbS alone (control) and HbS in the presence of compound were collected with the TCS software. The p50 for purified Hbs was typically 13.8±1.6. Delta p50 values were obtained from the p50 value for control minus the p50 value for HbS treated with compound divided by the p50 value for the control.
The compounds of Table 1 that were where tested in the assay above were all found to have positive delta p50 values. Delta p50% is calculated from [[p50(HbS)-p50(HbS treated with compound)]/p50(HbS)]×100. Table 2 below lists the delta p50% values where + indicates a delta p50% of between 0 and 29 and ++ indicates a delta p50% of 30 or greater. Unless noted otherwise, the compounds in Table 2 were tested at 30 μM.

purified HBS = target: T2, purified HBS (Homo sapiens, UniProt P68871+P69905, E7V); assay: HbS polymerization assay (delay time, absorbance at 700 nm); format: biochemical; settings: percent delay (% DT) of polymerization vs HBS alone; 50 μM purified HBS, 1.8 M potassium phosphate pH 7.4
T2 construct: HbS is purified by the CRO VIRUSYS, from blood obtained from homozygous sickle cell patients; tissue VIRUSYS (CRO that did the purification); host or cells: blood of homozygous sickle cell patients (CHORI)
Experimental: Polymerization assays are carried out in vitro using purified HBS exchanged into 1.8 M potassium phosphate buffer at pH 7.4. Using a slightly modified protocol (Antonini and Brunori, 1971), HbS is purified by the CRO VIRUSYS, from blood obtained from homozygous sickle cell patients through the Hemoglobinopathy Center at Children's Hospital Oakland Research Institute (CHORI) with Institutional Review Board approval. Compounds are prepared in 100% DMSO and a desired amount is added to 50 μM of purified HBS at a final DMSO concentration of 0.3%. Final potassium phosphate concentration is adjusted to 1.8 M using a combination of 2.5 M potassium phosphate stock solution and water at pH 7.4. The reaction mixture is incubated for an hour at 37° C. and then transferred into a 24-well plate for deoxygenation in a glove box containing 99.5% nitrogen and 0.5% oxygen. The 24-well plate is not covered and incubated at 4° C. on a plate cooler inside the glove box for one and a half hours. Fifty μL of the reaction mixture is transferred into a 96-well plate and the absorbance at 700 nm is measured every minute for one hour at 37° C. in a plate reader located inside the glove box. A plot of the absorbance against time is fitted using a Boltzman sigmoidal fit and the delay time (from zero to time at half Vmax) is measured. To compare and rank compounds, delay times are expressed as percent delay (% DT), which is defined as the difference in delay times for HBS/compound and HBS alone multiplied by 100 and divided by the delay time for HBS alone.
Compounds listed below have been tested in the polymerization assay. Activity ranges are defined by the number of dagger (†) symbols indicated. † denotes activity ≥40% but ≤80%; †† denotes activity >80% but ≤120%; ††† denotes activity >120% but ≤140%; †††† denotes activity >160%.

HbS/A = target: T3, HbS/A (Homo sapiens, UniProt P68871+P69905, E7V); assay: Relaxed-to-tense transition assay (R/T assay); format: biochemical; settings: compounds tested at 9 μM; 3 μM HbS/A, 30 μM DPG, 1 hr at 37° C., deoxygenation with N2
T3 construct: A mixture of HbS/A was purified from blood; from tissue; host or cells: blood of homozygous sickle cell patients (CHORI)
Experimental: A relaxed-to-tense transition assay (“R/T assay”) was used to determine the ability of substituted benzaldehyde compounds to maintain the high-oxygen affinity relaxed (R) state of hemoglobin under deoxygenated conditions. This ability can be expressed as a “delta R” value (i.e., the change in the time-period of the R state after hemoglobin is treated with a compound, as compared to the period without treatment with the compound). Delta R is the % R to remaining after the compounds treatment compared with no treatment (e.g. if R % without treatment is 8% while with treatment with a target compound is 48% R at 30 μM, then % R is 40% for that compound.
A mixture of HbS/A was purified from blood obtained from homozygous sickle cell patients though the Hemoglobinopathy Center at Children's Hospital Oakland Research Institute (CHORI) with Institutional Review Board approval. HbS/A (at a final concentration of 3 μM) was incubated for 1 hr at 37° C. in presence or absence of compounds in […] potassium phosphate buffer, pH=7.4 and 30 μM 2, 3 diphosphoglycerate (DPG) in 96 well plates in a final volume of 160 μl. Compounds were added at different concentrations (3 μM to 100 μM final concentrations). Plates were covered with a Mylar film. After incubation was completed the Mylar cover was removed and the plates were placed in a Spectrostar Nano plate reader previously heated at 37° C. Five minutes later, N2 (flow rate=20 L/min) was flowed through the spectrophotometer. Spectroscopic measurements (300 nm to 700 nm) were taken every 5 min for 2 hours. Data analysis was performed by using linear regression from the data retrieved for all wavelengths.
Table 4 below lists the delta R values where + indicates a delta R of between 0 and 30, ++ indicates a delta R of between 30 and 50, and +++ indicates a delta R of 50 or greater. Unless noted otherwise, the compounds in Table 2 were tested at 9 μM.

[2] = test system: whole blood from homozygous sickle cell patients; assay: Whole blood assay: oxygen equilibrium curves of whole blood, HEMOX analyzer; format: cell-based, human; settings: compounds tested at 1000 μM; hematocrit 20%, 1 hour at 37° C.
Experimental: Oxygen Equilibrium Curves (OEC) of whole blood before and after treatment with different concentrations of substituted benzaldehyde compounds were performed as follows using a HEMOX analyzer (TCS Scientific, New Hope, Pa.). Blood samples from homozygous sickle cell patients were obtained though the Hemoglobinopathy Center at Children's Hospital Oakland Research Institute (CHORI) with Institutional Review Board approval. The hematocrit was adjusted to 20% using autologous plasma and the blood samples were incubated for 1 hour at 37° C. in absence or presence of compounds. 100 μl of these samples were added to 5 mL of Hemox buffer (30 mM TES, 130 mM NaCl, 5 mM KCl, pH=7.4) at 37° C. and then transferred to the Hemox sample chamber. The samples were saturated with oxygen by flushing with compressed air for 10 minutes. The samples were then flushed with pure nitrogen and the respective absorbances of oxy- and deoxy-Hb are recorded as a function of the solution pO2. The oxygen equilibrium data were then fitted to the Hill Model to obtain values for p50. The deoxygenation curves for both whole blood alone (control) and whole blood in the presence of the compound were collected with the TCS software.
Table 5 below lists the delta p50% values where + indicates a delta p50% of between 0 and 29, ++ indicates a delta p50% of between 30 and 50, and +++ indicates a delta p50% of 50 or greater. The compounds in Table 2 were tested at 1000 μM.

[3] = test system: Transgenic mice producing human HbS; settings: extreme hypoxia (5% oxygen), cited from earlier work

SMILES: O=Cc1c(O)cccc1OC[C@H]1CCC[C@@H](C(=O)O)C1 (relative stereo) [Compound 5, cis-3-((2-formyl-3-hydroxyphenoxy)methyl)cyclohexanecarboxylic acid]
- delta p50 [1]: ++ (++ indicates a delta p50% of 30 or greater)
- % delta Delay (purified HBS): †††† (†††† denotes activity >160%)
- delta R (%) (HbS/A): +++ (+++ indicates a delta R of 50 or greater)
- delta p50% [2]: ++ (++ indicates a delta p50% of between 30 and 50)

SMILES: COC(=O)[C@H]1CC[C@@H](COc2cccc(O)c2C=O)CC1 [Compound 1, cis-methyl 4-((2-formyl-3-hydroxyphenoxy)methyl)cyclohexanecarboxylate]
- delta p50 [1]: ++ (++ indicates a delta p50% of 30 or greater)
- % delta Delay (purified HBS): †† (†† denotes activity >80% but ≤120%)
- delta R (%) (HbS/A): +++ (+++ indicates a delta R of 50 or greater)
- delta p50% [2]: + (+ indicates a delta p50% of between 0 and 29)

SMILES: O=Cc1c(O)cccc1OC[C@H]1CC[C@@H](C(=O)O)CC1 [Compound 2, cis-4-((2-formyl-3-hydroxyphenoxy)methyl)cyclohexanecarboxylic acid]
- delta p50 [1]: ++ (++ indicates a delta p50% of 30 or greater)
- % delta Delay (purified HBS): †††† (†††† denotes activity >160%)
- delta R (%) (HbS/A): ++ (++ indicates a delta R of between 30 and 50)
- delta p50% [2]: ++ (++ indicates a delta p50% of between 30 and 50)

SMILES: COC(=O)[C@H]1CC[C@H](COc2cccc(O)c2C=O)CC1 [Compound 4, trans-methyl 4-((2-formyl-3-hydroxyphenoxy)methyl)cyclohexanecarboxylate]
- delta p50 [1]: ++ (++ indicates a delta p50% of 30 or greater)
- % delta Delay (purified HBS): ††† (††† denotes activity >120% but ≤140%)
- delta R (%) (HbS/A): +++ (+++ indicates a delta R of 50 or greater)
- delta p50% [2]: + (+ indicates a delta p50% of between 0 and 29)

SMILES: O=Cc1ccc(CO)o1 [Compound 5HMF, 5-hydroxymethyl-2-furfuraldehyde]
- hypoxia-induced sickled red blood cells ([3]; compared to non-treated mice): reduced amounts of hypoxia-induced sickled red blood cells
- survival times [3]: significantly improved survival times

SMILES: O=Cc1c(O)cccc1OC[C@H]1CC[C@H](C(=O)O)CC1 [Compound 6, trans-4-((2-formyl-3-hydroxyphenoxy)methyl)cyclohexanecarboxylic acid]
- delta p50 [1]: ++ (++ indicates a delta p50% of 30 or greater)
- % delta Delay (purified HBS): †† (†† denotes activity >80% but ≤120%)
- delta p50% [2]: + (+ indicates a delta p50% of between 0 and 29)

SMILES: COC(=O)C1CCCC(COc2cccc(O)c2C=O)C1 (stereo not shown) [Compound 7, methyl 3-((2-formyl-3-hydroxyphenoxy)methyl)cyclohexanecarboxylate]
- delta p50 [1]: ++ (++ indicates a delta p50% of 30 or greater)
- % delta Delay (purified HBS): †† (†† denotes activity >80% but ≤120%)
- delta p50% [2]: + (+ indicates a delta p50% of between 0 and 29)

SMILES: COc1cccc(OC[C@H]2CC[C@H](C(=O)OC)CC2)c1C=O [Compound 8, trans-methyl 4-((2-formyl-3-methoxyphenoxy)methyl)cyclohexanecarboxylate]
- delta p50 [1]: + (+ indicates a delta p50% of between 0 and 29)
- % delta Delay (purified HBS): † († denotes activity ≥40% but ≤80%)
- delta R (%) (HbS/A): + (+ indicates a delta R of between 0 and 30)

SMILES: COC(=O)C1CCCC(COc2cccc(O)c2C=O)C1 (stereo not shown) [Compound 9, methyl 3-((2-formyl-3-hydroxyphenoxy)methyl)cyclohexanecarboxylate]
- delta p50 [1]: + (+ indicates a delta p50% of between 0 and 29)
- delta R (%) (HbS/A): +++ (+++ indicates a delta R of 50 or greater)

SMILES: O=Cc1c(O)cccc1OCC1=C(c2ccccc2)CCCC1 [Compound 10, 2-hydroxy-6-((3,4,5,6-tetrahydro-[1,1′-biphenyl]-2-yl)methoxy)benzaldehyde]
- % delta Delay (purified HBS): †† (†† denotes activity >80% but ≤120%)
- delta R (%) (HbS/A): ++ (++ indicates a delta R of between 30 and 50)
- delta p50% [2]: ++ (++ indicates a delta p50% of between 30 and 50)

SMILES: O=Cc1c(O)cccc1OCC1CCCCC1c1ccccc1 (stereo not shown) [Compound 11, 2-hydroxy-6-((2-phenylcyclohexyl)methoxy)benzaldehyde]
- % delta Delay (purified HBS): † († denotes activity ≥40% but ≤80%)
- delta R (%) (HbS/A): ++ (++ indicates a delta R of between 30 and 50)
